Data published in patent publication US3985779A, “M-phenoxyphenyl propionic acid derivatives and preparation thereof” (Eisai Co., Ltd., priority 1973, dated 1976).
“Also recorded” adds a separate entry of the source. Like-named read-outs stand apart in the source and are kept apart here.

Key:
[1] = test system: stomachs of the rats; format: in vivo; settings: 50 mg/kg oral; score 0 (nothing unusual) to 10 (considerable irritability with bleeding)
Source text: Observation of gastric irritability
Gastric irritability due to oral administration of the compounds as edema inhibitory agent was studied by macroscopical observation of the dissected stomachs of the rats which had been employed for determination of the edema inhibitions mentioned in the preceding paragraphs. The degrees of the irritability observed were scored in the 0 to 10 ratings depending upon the extent of errosions and bleedings of the stomachs, wherein the rating of 0(zero) means "nothing unusual", the rating of 10 means a state of considerable gastric irritability with bleeding and the remainders mean the intermediate degree of gastric irritability.

[2] = test system: yeast-induced pyrexia; test: Antipyretic activity to the yeast-treated rats (Experiment I); format: in vivo, rats (Wistar strain male); settings: for minimal effective dose: Rattus norvegicus, po
Method: To Wistar strain male rats having about 300 - 350 grs. body weight, an aqueous suspension of yeast was subcutaneously injected to induce pyrexia.
At the lapse of 4 hours since the dose of the yeast suspension, the compounds under test given in hereinaftermentioned Table 10 in a form of suspension in a 5% gum arabic aqueous solution are orally administered. The rectal temperatures of the rats were measured periodically by means of a thermister-type thermometer sold by Japan Koden K.K. As control, said 5% gum arabic aqueous solution alone was administered.

[3] = test system: Adjuvant-induced arthritis; test: Inhibitory activity on Adjuvant arthritis in rats (Experiment E); format: in vivo
Source text: The inflammatory score and the volumes of the right and left paws of the rats were observed.

[4] = test system: Carrageenin-induced edema; test: Inhibitory activity on Carrageenin-induced Edema in rats (Experiment A); format: in vivo, rats (male Wistar); settings: 3 hours after Carrageenin
Method: Inhibitory activity on Carrageenin-induced Edema in rats
Carrageenin was used as the agent for inducing edema and 5 male rats of Wistar strain having body weight of about 150 grs. after fasting for 16-17 hours were used as test animals. The inhibitory activity of the test compounds were determined with the paw edema method in accordance with Winter C. A. et al; Proc. Soc. Exp. Biol. Med. 111, 544 (1962).
The compounds were suspended in an aqueous solution of gum arabic and the same were orally administered to the rats at 1 hour before the injection of Carrageenin.
The observation was effected by measuring, after 3 hours the administration of the Carrageenin, the enlarged volumes of hind paw of the rats.

[5] = test system: ARRS-induced edema; test: Inhibitory activity on anti-rat-rabbit serum (ARRS)-induced edema in rats (Experiment D); format: in vivo
Method: Inhibitory activity on anti-rat-rabbit serum (ARRS)-induced edema in rats Similar Experiments was carried out by using ARRS as irritant substance.

[6] = test system: Dextran-induced edema; test: Inhibitory activity on dextran-induced edema in rats (Experiment C); format: in vivo
Method: Inhibitory activity on dextran-induced edema in rats Experiment was carried out in the manner same as those of the preceding Experiments in which dextran was employed as irritant substance.

[7] = in vivo; settings: mouse, po
Method: Comparison of toxicity of the phenyl propionic acid derivatives of the present invention and that of the other known anti-inflammatory agents was carried out in mice.

[8] = test system: edema induced with the various inflammatory agents; test: Inhibitory activity on edema induced with the various inflammatory agents (Experiments A-G, summary); format: in vivo, rats; settings: compared with Fenoprofen and Ibuprofen
Source text: From the abovementioned Experiments A - G, it has been found the followings: […]

[9] = test system: writhing syndrome; test: Analgesic activity: antagonism to acetic acid writhing syndrome in mice (Experiment J); format: in vivo, mice (dd strain male)
Method: Analgesic activity of the compound of the present invention in comparison with the known compounds.
Analgesic activity of the compound was tested as the measure of antagonism to writhing syndrome appeared when 0.1 ml/10g of 0.7% acetic acid was intraperitoneally injected to the dd strain male mice having 17 - 20 grs. body weight which had been abstinence from food for 18 hours.
The compounds under test were orally administered in a form of suspension in a 5% aqueous solution of gum arabic. After one hour from the administration, the onset times required for the writhing syndrome were scored.
In another Experiment in the combined use of the compounds under test and Codeine phosphate, 10 - 20 mg/kg of Codeine phosphate were orally administered immediatly after the oral administration of the compounds under test.

[10] = test system: Kaolin-induced edema; test: Inhibitory activity on Kaolin-induced Edema in Rats (Experiment B); format: in vivo
[11] = daily oral 40 mg/kg for 9 days, final

Structure (SMILES): CC(C(=O)O)c1cccc(Oc2ccccc2Cl)c1 (stereo not drawn) [Compound (5), 2-[m-(o-chlorophenoxy)phenyl]propionic acid]
- Degree of gastric irritability [1]: 2
- body temperature relative to normal (in words) ([2]; 80 and 160 mg/kg p.o.): no body temperatures lower than the normal body temperatures
- Change in rectal temperature, mean ± S.E. ([2]; 1 hr, 1.25 mg/kg p.o.): +0.25 ± 0.09
- Change in rectal temperature, mean ± S.E. ([2]; 1 hr, 5 mg/kg p.o.): -0.15 ± 0.13
- Change in rectal temperature, mean ± S.E. ([2]; 1 hr, 20 mg/kg p.o.): -0.53 ± 0.10
- Change in rectal temperature, mean ± S.E. ([2]; 1 hr, 80 mg/kg p.o.): -0.55 ± 0.13
- Change in rectal temperature, mean ± S.E. ([2]; 1 hr, 160 mg/kg p.o.): -0.48 ± 0.14
- Change in rectal temperature, mean ± S.E. ([2]; 3 hrs, 1.25 mg/kg p.o.): +0.03 ± 0.21
- Change in rectal temperature, mean ± S.E. ([2]; 3 hrs, 5 mg/kg p.o.): -0.30 ± 0.17
- Change in rectal temperature, mean ± S.E. ([2]; 3 hrs, 20 mg/kg p.o.): -0.90 ± 0.10
- Change in rectal temperature, mean ± S.E. ([2]; 3 hrs, 80 mg/kg p.o.): -0.83 ± 0.09
- Change in rectal temperature, mean ± S.E. ([2]; 3 hrs, 160 mg/kg p.o.): -0.90 ± 0.17
- Change in rectal temperature, mean ± S.E. ([2]; 5 hrs, 1.25 mg/kg p.o.): +0.13 ± 0.15
- Change in rectal temperature, mean ± S.E. ([2]; 5 hrs, 5 mg/kg p.o.): -0.25 ± 0.16
- Change in rectal temperature, mean ± S.E. ([2]; 5 hrs, 20 mg/kg p.o.): -0.70 ± 0.27
- Change in rectal temperature, mean ± S.E. ([2]; 5 hrs, 80 mg/kg p.o.): -0.65 ± 0.16
- Change in rectal temperature, mean ± S.E. ([2]; 5 hrs, 160 mg/kg p.o.): -1.03 ± 0.19
- minimal effective dose ([2]; 1 h, p.o., compound (5): at one hour lapse, read-out: dose with significant antipyretic activity): 5 mg/kg
- minimal effective dose ([2]; read-out: dose with tendency of an antipyretic activity): 1.25 mg/kg
- dose with maximum antipyretic activity ([2]; p.o.): 20 mg/kg
- Final Paw Volume, left paw [3, 11]: 45
- Final Paw Volume, right paw [3, 11]: 66
- Final Score, Mean, left paw [3, 11]: 1.8
- Final Score, Mean, right paw [3, 11]: 3.2
- Final Score, Total, left paw [3, 11]: 9
- Final Score, Total, right paw [3, 11]: 16
- Initial Paw Volume, left paw ([3]; daily oral 40 mg/kg, initial): 39
- Initial Paw Volume, right paw ([3]; daily oral 40 mg/kg, initial): 73
- Initial Score, Mean, left paw ([3]; daily oral 40 mg/kg, initial): 1.8
- Initial Score, Mean, right paw ([3]; daily oral 40 mg/kg, initial): 3.6
- Initial Score, Total, left paw ([3]; daily oral 40 mg/kg, initial): 9
- Initial Score, Total, right paw ([3]; daily oral 40 mg/kg, initial): 18
- inhibitory activity on Adjuvant arthritis (in words) ([3]; score and paw volume, 40 mg/kg daily for 9 days): significant inhibitory activity in score and paw volume
- % of Inhibition ([4]; oral 8.0 mg/kg): 43%
- Edema density ± S.E. ([4]; oral 8.0 mg/kg): .305 ± .044
- % of Inhibition ([4]; oral 40.0 mg/kg): 53%
- Edema density ± S.E. ([4]; oral 40.0 mg/kg): .250 ± .049
- Edema D. ± S.E. ([5]; after 2 hrs, oral 8 mg/kg): .631 ± 7040
- % of Inhibition ([5]; after 2 hrs, oral 40 mg/kg): 10%
- Edema D. ± S.E. ([5]; after 2 hrs, oral 40 mg/kg): .610 ± .067
- % of Inhibition ([5]; after 3 hrs, oral 8 mg/kg): 11%
- Edema D. ± S.E. ([5]; after 3 hrs, oral 8 mg/kg): .637 ± .074
- % of Inhibition ([5]; after 3 hrs, oral 40 mg/kg): 19%
- Edema D. ± S.E. ([5]; after 3 hrs, oral 40 mg/kg): .575 ± .074
- % of Inhibition ([6]; after 2 hrs, oral 8 mg/kg): 1%
- Edema D. ± S.E. ([6]; after 2 hrs, oral 8 mg/kg): .830 ± .052
- % of Inhibition ([6]; after 2 hrs, oral 40 mg/kg): 11%
- Edema D. ± S.E. ([6]; after 2 hrs, oral 40 mg/kg): .742 ± .037
- % of Inhibition ([6]; after 3 hrs, oral 8 mg/kg): 1%
- Edema D. ± S.E. ([6]; after 3 hrs, oral 8 mg/kg): .746 ± .026
- % of Inhibition ([6]; after 3 hrs, oral 40 mg/kg): 8%
- Edema D. ± S.E. ([6]; after 3 hrs, oral 40 mg/kg): .689 ± .035
- LD50 [7]: 1120 mg/kg
- anti-inflammatory activity (in words) [8]: most effective as the anti-inflammatory agent
- Onset time of writhing syndrome, mean ± S.E. ([9]; 10 mg/kg p.o. combined with Codeine Phosphate 10 mg/kg): 6.7 ± 1.3 min
- Onset time of writhing syndrome, mean ± S.E. ([9]; 10 mg/kg p.o. combined with Codeine Phosphate 20 mg/kg): 6.9 ± 0.7 min
- Onset time of writhing syndrome, mean ± S.E. ([9]; 20 mg/kg p.o. combined with Codeine Phosphate 10 mg/kg): 6.9 ± 1.3 min
- Onset time of writhing syndrome, mean ± S.E. ([9]; 20 mg/kg p.o. combined with Codeine Phosphate 20 mg/kg): 8.6 ± 0.6 min
- Onset time of writhing syndrome, mean ± S.E. ([9]; 40 mg/kg p.o. combined with Codeine Phosphate 10 mg/kg): 7.1 ± 1.2 min
- Onset time of writhing syndrome, mean ± S.E. ([9]; 40 mg/kg p.o. combined with Codeine Phosphate 20 mg/kg): 13.7 ± 1.2 min
- Onset time of writhing syndrome, mean ± S.E. ([9]; 80 mg/kg p.o. combined with Codeine Phosphate 10 mg/kg): 10.5 ± 1.2 min
- Onset time of writhing syndrome, mean ± S.E. ([9]; 80 mg/kg p.o. combined with Codeine Phosphate 20 mg/kg): 14.2 ± 0.8 min
- analgesic activity in combination with Codeine (in words) ([9]; 10 - 80 mg/kg p.o. with Codeine phosphate 10 and 20 mg/kg p.o.): almost equivalent to those of Fenoprofen and Ibuprofen, and far stronger than that of Aspirin; also recorded: comparable to that of Fenoprofen and slightly stronger than that presented by Ibuprofen
- minimal effective dose ([9]; Mus musculus, 1 h, single oral administration, read-out: dose with significant antagonism / retardation of writhing syndrome): > 20 mg/kg
- analgesic activity (in words) ([9]; mouse, in vivo): high analgesic activity
- Onset time of writhing syndrome, mean ± S.E. ([9]; test compound alone, 10 mg/kg p.o.): 5.2 ± 1.2 min
- Onset time of writhing syndrome, mean ± S.E. ([9]; test compound alone, 20 mg/kg p.o.): 6.6 ± 1.6 min
- Onset time of writhing syndrome, mean ± S.E. ([9]; test compound alone, 40 mg/kg p.o.): 5.8 ± 0.4 min
- Onset time of writhing syndrome, mean ± S.E. ([9]; test compound alone, 80 mg/kg p.o.): 7.8 ± 1.7 min
- % of Inhibition ([10]; after 3 hrs, oral 8 mg/kg): 20%
- Edema D. ± S.E. ([10]; after 3 hrs, oral 8 mg/kg): .334 ± .069
- % of Inhibition ([10]; after 3 hrs, oral 40 mg/kg): 52%
- Edema D. ± S.E. ([10]; after 3 hrs, oral 40 mg/kg): .201 ± .021
- % of Inhibition ([10]; after 5 hrs, oral 8 mg/kg): 21%
- Edema D. ± S.E. ([10]; after 5 hrs, oral 8 mg/kg): .442 ± .045
- % of Inhibition ([10]; after 5 hrs, oral 40 mg/kg): 57%
- Edema D. ± S.E. ([10]; after 5 hrs, oral 40 mg/kg): .245 ± .017
- % of Inhibition ([10]; after 7 hrs, oral 8 mg/kg): 7%
- Edema D. ± S.E. ([10]; after 7 hrs, oral 8 mg/kg): .563 ± .060
- % of Inhibition ([10]; after 7 hrs, oral 40 mg/kg): 51%
- Edema D. ± S.E. ([10]; after 7 hrs, oral 40 mg/kg): .294 ± .035
